Test: Radiolysis / stability of [18F]DCFPyL over time by HPLC with radiodetection (RCP, free 18F, radioactive impurities)
Type: physicochemical
Description: Those of ordinary skill in the art will be aware of techniques and systems for determining the radiochemical purity of a composition. In some cases, the radiochemical purity is determined using an HPLC associated with a radio-detector. Generally, the radiochemical purity is determined under ambient conditions (e.g., ambient temperature, ambient humidity, ambient light, etc.), such as in samples stored under such conditions.
Stability was assessed using reverse phase HPLC on a C18 column with a phosphate buffer/acetonitrile gradient mobile phase, and the elution profile was monitored using both UV and radiochemical detectors. Samples were analyzed either by direct injection onto the HPLC, dilution and injection or including the addition of tetraethylammonium fluoride (TEAF) into the sample before injection.
Known amounts of free ^18F either alone or spiked with TEAF were injected onto the analytic column and the eluent from the column collected over the course of a chromatogram and assaying the radioactivity using a Capintec. […] Adding TEAF into the analytic samples was incorporated into subsequent studies examining potential radiolysis of [^18F]DCFPyL to overcome some of the limitations of free ^18F quantification.
Analytical HPLC method was used. The method employs UV detection at 264 nm for chemical impurities, and an Eckert & Ziegler model B-FC-1000 gamma detector for radiochemical assays.

[1] = T = 10, 50 mg/mL ascorbic acid pH 5.8, 20% ethanol, 106.5 mCi/mL at EOS
[2] = T = 0.5 hr, 50 mg/mL ascorbic acid pH 5.8 in final product vial, 20% ethanol, 110 mCi/mL at EOS
[3] = T = 0.5 hr, 100 mg/mL ascorbic acid pH 2.0, 256 mCi/mL at EOS
[4] = T = 0.5 hr, 20% ethanol in saline, 52 mCi/mL at EOS
[5] = T = 0.5 hr, 20% ethanol in saline, 65 mCi/mL at EOS
[6] = T = 0.5 hr, 20% ethanol in saline, 85 mCi/mL at EOS
[7] = T = 0.5 hr, control without ascorbic acid, 36% ethanol in saline, 147 mCi/mL at EOS
[8] = T = 1.0 hr, 50 mg/mL ascorbic acid pH 5.8 in final product vial, 20% ethanol, 110 mCi/mL at EOS
[9] = T = 1.0 hr, 100 mg/mL ascorbic acid pH 2.0, 256 mCi/mL at EOS
[10] = T = 1 hr, 20% ethanol in saline, 52 mCi/mL at EOS
[11] = T = 1 hr, 20% ethanol in saline, 65 mCi/mL at EOS
[12] = T = 1 hr, 20% ethanol in saline, 85 mCi/mL at EOS
[13] = T = 1 hr, 100% ethanol, 325 mCi/mL at EOS
[14] = T = 1 hr, control without ascorbic acid, 36% ethanol in saline, 147 mCi/mL at EOS
[15] = T = 1.5 hr (Table 3 prints 1.6 hr), control without ascorbic acid, 36% ethanol in saline, 147 mCi/mL at EOS
[16] = T = 1.5 hr, 50 mg/mL ascorbic acid pH 5.8 in final product vial, 20% ethanol, 110 mCi/mL at EOS
[17] = T = 1.5 hr, 100 mg/mL ascorbic acid pH 2.0, 256 mCi/mL at EOS

Structure (SMILES): O=C(O)CC[C@H](NC(=O)N[C@@H](CCCCNC(=O)c1ccc([18F])nc1)C(=O)O)C(=O)O [Lot 18F-DCFPyL, 2-(3-{1-carboxy-5-[(6-[18F]fluoro-pyridine-3-carbonyl)-amino]-pentyl}ureido)-pentanedioic acid]
- 18F-DCFPyL (% RCP) [1]: 99.43%
- Free F-18 [1]: 0.57%
- 18F-DCFPyL (RCP) [2]: 99.69%
- RT 5.0 radioactive impurity [2]: 0.31%
- 18F-DCFPyL (RCP) [3]: 99.60%
- Free 18F [3]: 0.40%
- 18F-DCFPyL (RCP) [4]: 99.18%
- Free F-18 [4]: 0.36%
- RT 5.0 radioactive impurity [4]: 0.47%
- 18F-DCFPyL (RCP) [5]: 96.43%
- Free F-18 [5]: 3.17%
- RT 5.0 radioactive impurity [5]: 0.39%
- 18F-DCFPyL (RCP) [6]: 96.74%
- Free F-18 [6]: 2.92%
- RT 5.0 radioactive impurity [6]: 0.34%
- 18F-DCFPyL (RCP) [7]: 90.65%
- Free F-18 [7]: 7.73%
- RT 5.0 radioactive impurity [7]: 0.65%
- RT 5.9 radioactive impurity [7]: 0.97%
- 18F-DCFPyL (RCP) [8]: 96.73%
- RT 5.0 radioactive impurity [8]: 0.27%
- 18F-DCFPyL (RCP) [9]: 98.68%
- Free 18F [9]: 0.31%
- RT 5.0 radioactive impurity [9]: 0.35%
- RT 12.0 radioactive impurity [9]: 0.35%
- RT 12.2 radioactive impurity [9]: 0.31%
- 18F-DCFPyL (RCP) [10]: 98.93%
- Free F-18 [10]: 0.56%
- RT 5.0 radioactive impurity [10]: 0.51%
- 18F-DCFPyL (RCP) [11]: 96.15%
- Free F-18 [11]: 3.22%
- RT 5.0 radioactive impurity [11]: 0.36%
- RT 5.9 radioactive impurity [11]: 0.28%
- 18F-DCFPyL (RCP) [12]: 96.64%
- Free F-18 [12]: 2.98%
- RT 5.0 radioactive impurity [12]: 0.38%
- 18F-DCFPyL (RCP) [13]: 96.66%
- Free F-18 [13]: 3.34%
- 18F-DCFPyL (RCP) [14]: 90.71%
- Free F-18 [14]: 7.69%
- RT 5.0 radioactive impurity [14]: 0.48%
- RT 5.9 radioactive impurity [14]: 1.11%
- 18F-DCFPyL (RCP) [15]: 89.59%
- Free F-18 [15]: 8.78%
- RT 5.0 radioactive impurity [15]: 0.61%
- RT 5.9 radioactive impurity [15]: 1.03%
- 18F-DCFPyL (RCP) [16]: 99.61%
- RT 5.0 radioactive impurity [16]: 0.39%
- RT 5.9 radioactive impurity [16]: 0.31%
- 18F-DCFPyL (RCP) [17]: 98.58%
- Free 18F [17]: 0.31%
- RT 5.0 radioactive impurity [17]: 0.28%
- RT 12.0 radioactive impurity [17]: 0.46%

— patent US20250019350A1, “SYNTHESIS OF THE PROSTATE SPECIFIC MEMBRANE ANTIGEN (PSMA) RADIOLABELED INHIBITOR [18F]DCFPYL” (Progenics Pharmaceuticals, Inc, priority 2023, published 2025)
